The text below walks through data of ChEMBL document CHEMBL1201862, “PubChem BioAssay data set” (2004).

Experiment in all cases: NCI anticancer screen, dose series, 48 h
The test system of assay [1] is NCI-H226.
Assay [2] has as its system SR.
Assay [3] deals with SW-620.
In assay [4] the test system is HOP-92.
In assay [5] the test system is SK-MEL-5.
Assay [6] concerns DMS-273.
For assay [7], the system named is OVCAR-8.
Assay [8] deals with A498.
The subject of assay [9] is NCI-H23.
Assay [10] deals with CAKI-1.
In assay [11] the test system is KM12.
For assay [12], the system named is CCRF-CEM.
In assay [13] the test system is ACHN.
The subject of assay [14] is SK-OV-3.
Assay [15] relates to RXF 393.
In assay [16] the test system is SF-268.
Assay [17] deals with U-251.
Assay [18] has as its system BT-549.
Assay [19] deals with MDA-MB-435.
In assay [20] the test system is DU-145.

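How tested: cells in 96-well plates exposed to compound for 48 hours at five concentrations. GI50 = concentration required for 50% inhibition of growth.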 The source made the active and inactive calls. No stated cut-off is given here; in the data, active = GI50 up to about 1.1 µM and inactive = higher.

Consider `O=C1NC(=O)C2C(=O)NC(=O)C1C2c1c(Cl)cccc1Cl` (stereo not drawn), for which the GI50 was > 100 µM (inactive) in [1]; > 100 µM (inactive) in [2]; > 31.3 µM (inactive) in assay [3]; > 100 µM (inactive) in assay [4]; > 100 µM (inactive) in [5]; > 42.7 µM (inactive) in assay [6]. The GI50 in assay [7] was > 66.2 µM (inactive); in assay [8], > 100 µM (inactive); in [9] it was > 100 µM (inactive); in [10] it was > 100 µM (inactive); in assay [11] it was > 69.2 µM (inactive); in assay [12], > 46.7 µM (inactive). The GI50 in assay [13] is > 100 µM (inactive); in assay [14], > 100 µM (inactive); in [15], > 43.1 µM (inactive); in [16], > 51.1 µM (inactive); in [17], > 66.1 µM (inactive).
With `CCCCCCCCCCC(=O)CCCCCCC(=O)O`, the GI50 in assay [1] was 32.8 µM (inactive); in assay [2] it was 18.2 µM (inactive); in assay [3], 22.4 µM (inactive); in assay [4], 16.9 µM (inactive); in assay [5], 15.5 µM (inactive); in [6], 19.3 µM (inactive). The GI50 is 17.8 µM (inactive) in [7]; 20.1 µM (inactive) in assay [8]; 30.1 µM (inactive) in [9]; 30.5 µM (inactive) in [10]; 15.5 µM (inactive) in [11]; 19.5 µM (inactive) in [12]. Moreover, the GI50 in [13] is 21.5 µM (inactive); in assay [14], 53.8 µM (inactive); in assay [15] it was 36.3 µM (inactive); in [16] it was 50.5 µM (inactive); in assay [17] it was 20.7 µM (inactive).
For `CN(C)CC1CCCC/C1=N\OC(=O)c1ccccc1` (stereo not drawn), the GI50 in [1], in assay [2], in [3], in [4], in [5] and in assay [6] was > 100 µM (inactive) each time. Moreover, the GI50 in [7], in assay [8], in [9], in [10], in assay [11] and in assay [12] was > 100 µM (inactive) in each case. Moreover, the GI50 in assay [13], in assay [14], in [15], in assay [16] and in assay [17] was > 100 µM (inactive) throughout.
`O=C1C(CN2CCCCC2)CCCC1CN1CCCCC1` (stereo not drawn): the GI50 in assay [1] is > 52.2 µM (inactive); in assay [2], 15.3 µM (inactive); in assay [3] it was 5.45 µM (inactive); in assay [5], 32.1 µM (inactive); in [6], 43.2 µM (inactive); in assay [7], 18.5 µM (inactive). Also, the GI50 in [18] is 16.4 µM (inactive); in [9], 22.9 µM (inactive); in assay [11], 37 µM (inactive); in [13] it was 18 µM (inactive); in assay [14] it was > 100 µM (inactive); in assay [15], 16.3 µM (inactive). Further, the GI50 is 17 µM (inactive) in assay [19], 17.8 µM (inactive) in assay [20] and > 100 µM (inactive) in assay [17].
With `COc1cc2cc3c4cc(OC)c(OC)cc4cc[n+]3c(C)c2cc1OC.O=C([O-])CS(=O)(=O)O`, the GI50 in assay [1] is 10.8 µM (inactive); in [2], > 100 µM (inactive); in assay [3] it was 72.8 µM (inactive); in assay [4] it was > 100 µM (inactive); in assay [5], 80 µM (inactive); in [6] it was 63.8 µM (inactive). Besides, the GI50 was 24.3 µM (inactive) in [7]; 22.3 µM (inactive) in [8]; 33.5 µM (inactive) in assay [18]; 7.87 µM (inactive) in assay [9]; > 100 µM (inactive) in assay [10]; > 100 µM (inactive) in assay [11]. The GI50 in assay [12] is 33.2 µM (inactive); in assay [13], > 100 µM (inactive); in assay [14], > 100 µM (inactive); in assay [15], > 100 µM (inactive); in assay [19], 42.3 µM (inactive); in assay [16], 0.811 µM (active). The GI50 in assay [20] is 28.4 µM (inactive); in assay [17], 8.69 µM (inactive).
On to `c1ccc2c(CNCCCCCCCCCCCCNCc3cccc4ccccc34)cccc2c1`, for which the GI50 in assay [1] is 2.39 µM (inactive); in assay [2], 1.11 µM (active); in assay [3], 1.79 µM (inactive); in assay [4], 1.88 µM (inactive); in [5], 1.83 µM (inactive); in assay [6], 91.8 µM (inactive). The GI50 in assay [7] is 1.63 µM (inactive); in [8], 6.08 µM (inactive); in [9] it was 1.51 µM (inactive); in assay [10], 1.92 µM (inactive); in assay [11], 1.61 µM (inactive); in assay [12] it was 1.26 µM (inactive). For the same compound, the GI50 in [13] was 1.91 µM (inactive); in assay [14], 13.3 µM (inactive); in [15] it was 1.36 µM (inactive); in assay [16] it was 2.22 µM (inactive); in assay [17] it was 1.77 µM (inactive).
